We go through one molecule from PMC7180638, “Synthesis of Pyrrolidine Monocyclic Analogues of Pochonicine and Its Stereoisomers: Pursuit of Simplified Structures and Potent β-N-Acetylhexosaminidase Inhibition” (Molecules, 2020).

Common to all, as to format: biochemical
The target of assay [1] is β-N-Acetylhexosaminidase (Bovine liver). The assay is described as follows: β-N-Acetylhexosaminidase (bovine liver) inhibition. As to conditions: β-N-Acetylhexosaminidase (β-GlcNAcase), read-out: IC50. The protocol: (§1) With rat intestinal maltase as an exception, other enzymes were purchased from Sigma-Aldrich Chemical Co. (St. Louis, MO, USA). Brush border membranes prepared from rat small intestine according to the method of Kessler et al. were assayed at pH 6.8 for rat intestinal maltase using maltose. The released D-glucose was determined colorimetrically using the Glucose CII-test Wako (Wako Pure Chemical Ind.; Osaka, Japan). Other glycosidase activities were determined using an appropriate p-nitrophenyl glycoside as substrate in a buffer solution at the optimal pH value of each enzyme. The reaction was stopped by adding 400 mM Na2CO3. The released p-nitrophenol was measured spectrometrically at 400 nm.

Assay [2] addresses β-Glucosidase (Bovine liver). The assay is described as follows: β-Glucosidase (bovine liver) inhibition. The protocol:
as §1

For another assay, the target named is β-Mannosidase (Snail). The assay is described as follows: β-Mannosidase (snail) inhibition. How it is done:
as §1

Assay [3] has as its target T1, α-N-Acetylgalactosaminidase (Chicken liver) (Gallus gallus, UniProt Q90744).
T1 construct: purchased Sigma-Aldrich Chemical Co; host or cells: chicken liver
T1 sequence (Q90744 1-405): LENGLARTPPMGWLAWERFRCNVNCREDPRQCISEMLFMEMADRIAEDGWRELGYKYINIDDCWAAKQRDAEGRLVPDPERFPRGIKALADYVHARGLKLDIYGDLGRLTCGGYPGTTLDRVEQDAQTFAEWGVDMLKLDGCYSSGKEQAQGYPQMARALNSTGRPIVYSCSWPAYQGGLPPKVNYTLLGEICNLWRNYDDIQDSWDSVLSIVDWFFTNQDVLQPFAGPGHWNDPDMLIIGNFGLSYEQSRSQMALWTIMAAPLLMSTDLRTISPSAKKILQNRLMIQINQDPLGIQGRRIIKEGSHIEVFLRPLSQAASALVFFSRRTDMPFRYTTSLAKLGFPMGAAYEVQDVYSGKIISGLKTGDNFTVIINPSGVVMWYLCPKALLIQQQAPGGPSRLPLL
The assay is described as follows: α-N-Acetylgalactosaminidase (chicken liver) inhibition. The protocol: as §1

In assay [4] the target is T2, β-Glucuronidase (Bovine liver) (Bos taurus, UniProt A3KMY8).
T2 construct: purchased Sigma-Aldrich Chemical Co; host or cells: bovine liver
T2 sequence (A3KMY8 1-652): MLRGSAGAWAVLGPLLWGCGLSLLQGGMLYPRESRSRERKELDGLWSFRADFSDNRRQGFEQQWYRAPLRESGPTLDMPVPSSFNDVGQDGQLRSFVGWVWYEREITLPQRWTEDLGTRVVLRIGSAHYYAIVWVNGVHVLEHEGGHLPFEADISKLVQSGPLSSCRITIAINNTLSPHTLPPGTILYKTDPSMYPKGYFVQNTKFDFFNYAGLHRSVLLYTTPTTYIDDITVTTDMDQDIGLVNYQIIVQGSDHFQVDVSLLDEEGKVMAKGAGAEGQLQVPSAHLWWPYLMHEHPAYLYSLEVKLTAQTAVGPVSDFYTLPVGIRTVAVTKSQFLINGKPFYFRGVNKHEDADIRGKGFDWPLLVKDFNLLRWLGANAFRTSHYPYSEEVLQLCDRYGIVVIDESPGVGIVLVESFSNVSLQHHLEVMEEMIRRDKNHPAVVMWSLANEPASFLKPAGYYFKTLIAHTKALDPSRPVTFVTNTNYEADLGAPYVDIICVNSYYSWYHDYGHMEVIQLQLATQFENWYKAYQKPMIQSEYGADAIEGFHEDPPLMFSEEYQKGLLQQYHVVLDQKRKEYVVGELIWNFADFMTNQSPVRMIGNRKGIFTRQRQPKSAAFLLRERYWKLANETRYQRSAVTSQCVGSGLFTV
The assay is described as follows: β-Glucuronidase (bovine liver) inhibition. The protocol:
as §1

The target of assay [5] is T3, α-Galactosidase (Coffee beans) (Coffea arabica, UniProt Q42656).
T3 construct: purchased Sigma-Aldrich Chemical Co
T3 sequence (Q42656 16-378): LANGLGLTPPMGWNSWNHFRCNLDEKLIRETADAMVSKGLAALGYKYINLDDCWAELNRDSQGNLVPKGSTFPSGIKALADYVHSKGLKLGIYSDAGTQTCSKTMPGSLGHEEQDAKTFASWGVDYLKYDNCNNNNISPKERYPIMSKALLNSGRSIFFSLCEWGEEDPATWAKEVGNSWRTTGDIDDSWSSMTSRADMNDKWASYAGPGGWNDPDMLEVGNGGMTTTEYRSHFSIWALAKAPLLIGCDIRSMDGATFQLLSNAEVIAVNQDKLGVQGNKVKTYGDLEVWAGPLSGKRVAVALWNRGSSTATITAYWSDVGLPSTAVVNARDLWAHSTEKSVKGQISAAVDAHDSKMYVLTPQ
The assay is described as follows: α-Galactosidase (coffee beans) inhibition. The protocol:
as §1

In assay [6] the target is β-N-Acetylgalactosaminidase (HL60). The assay is described as follows: β-N-Acetylgalactosaminidase (HL60) inhibition. The protocol:
as §1

The target in assay [7] is β-N-Acetylhexosaminidase (Jack bean). The assay is described as follows: β-N-Acetylhexosaminidase (Jack bean) inhibition. As to conditions: β-N-Acetylhexosaminidase (β-GlcNAcase), read-out: IC50. How it is done: as §1
Another assay addresses Rat intestinal maltase. The assay is described as follows: Rat intestinal maltase inhibition. As to conditions: α-Glucosidase. How it is done: as §1
The next assay deals with T4, α-Glucosidase (Rice) (Oryza sativa subsp. japonica, UniProt Q653V7).
T4 construct: purchased Sigma-Aldrich Chemical Co
T4 sequence (Q653V7 34-885): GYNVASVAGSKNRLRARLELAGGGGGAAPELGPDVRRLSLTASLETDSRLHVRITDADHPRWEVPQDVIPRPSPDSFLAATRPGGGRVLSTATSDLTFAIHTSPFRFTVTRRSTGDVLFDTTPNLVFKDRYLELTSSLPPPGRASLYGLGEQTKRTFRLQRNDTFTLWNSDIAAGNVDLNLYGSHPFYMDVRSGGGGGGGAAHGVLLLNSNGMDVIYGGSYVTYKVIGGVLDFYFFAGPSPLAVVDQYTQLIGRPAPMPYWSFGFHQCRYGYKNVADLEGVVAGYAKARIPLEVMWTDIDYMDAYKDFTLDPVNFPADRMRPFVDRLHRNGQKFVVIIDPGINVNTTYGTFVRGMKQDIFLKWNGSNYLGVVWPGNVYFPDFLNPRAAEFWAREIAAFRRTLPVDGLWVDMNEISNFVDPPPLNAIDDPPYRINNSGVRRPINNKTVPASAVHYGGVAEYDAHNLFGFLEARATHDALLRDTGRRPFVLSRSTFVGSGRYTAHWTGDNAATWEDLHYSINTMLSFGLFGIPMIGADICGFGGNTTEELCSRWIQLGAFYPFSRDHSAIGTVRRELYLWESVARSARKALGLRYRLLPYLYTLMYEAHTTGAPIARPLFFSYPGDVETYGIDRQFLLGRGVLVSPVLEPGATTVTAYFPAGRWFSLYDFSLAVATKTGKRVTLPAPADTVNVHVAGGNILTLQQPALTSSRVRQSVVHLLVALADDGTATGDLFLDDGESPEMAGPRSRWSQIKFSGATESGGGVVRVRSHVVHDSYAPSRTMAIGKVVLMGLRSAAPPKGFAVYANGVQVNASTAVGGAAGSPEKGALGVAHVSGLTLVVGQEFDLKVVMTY
The assay is described as follows: α-Glucosidase (rice) inhibition. How it is done:
as §1

Another assay concerns the target α-Glucosidase (Yeast) (Saccharomyces cerevisiae, UniProt P53341). The assay is described as follows: α-Glucosidase (yeast) inhibition. How it is done:
as §1

In assay [8] the target is T5, α-L-Fucosidase (Bovine kidney) (Bos taurus, UniProt Q2KIM0).
T5 construct: purchased Sigma-Aldrich Chemical Co; host or cells: bovine kidney
T5 sequence (Q2KIM0 23-468): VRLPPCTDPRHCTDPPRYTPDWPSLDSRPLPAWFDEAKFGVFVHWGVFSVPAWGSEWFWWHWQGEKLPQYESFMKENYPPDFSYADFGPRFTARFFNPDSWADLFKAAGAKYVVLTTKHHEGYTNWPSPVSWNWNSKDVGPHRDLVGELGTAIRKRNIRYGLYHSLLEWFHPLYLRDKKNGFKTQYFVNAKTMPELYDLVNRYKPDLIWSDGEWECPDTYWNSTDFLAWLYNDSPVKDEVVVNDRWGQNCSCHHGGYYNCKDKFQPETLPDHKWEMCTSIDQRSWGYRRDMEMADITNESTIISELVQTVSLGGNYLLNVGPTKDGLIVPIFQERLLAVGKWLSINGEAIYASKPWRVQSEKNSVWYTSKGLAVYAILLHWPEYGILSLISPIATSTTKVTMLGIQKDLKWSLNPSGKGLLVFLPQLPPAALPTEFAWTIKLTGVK
The assay is described as follows: α-L-Fucosidase (bovine kidney) inhibition. The protocol: as §1

[9] abbreviates: 1000 μM, read-out: Inhibition % at 1000 μM.

Counter-ions that a name gives are not always drawn. Like-named read-outs stand apart in the source and are kept apart here.

α-Glucosidase (Yeast), sequence (P53341 whole entry): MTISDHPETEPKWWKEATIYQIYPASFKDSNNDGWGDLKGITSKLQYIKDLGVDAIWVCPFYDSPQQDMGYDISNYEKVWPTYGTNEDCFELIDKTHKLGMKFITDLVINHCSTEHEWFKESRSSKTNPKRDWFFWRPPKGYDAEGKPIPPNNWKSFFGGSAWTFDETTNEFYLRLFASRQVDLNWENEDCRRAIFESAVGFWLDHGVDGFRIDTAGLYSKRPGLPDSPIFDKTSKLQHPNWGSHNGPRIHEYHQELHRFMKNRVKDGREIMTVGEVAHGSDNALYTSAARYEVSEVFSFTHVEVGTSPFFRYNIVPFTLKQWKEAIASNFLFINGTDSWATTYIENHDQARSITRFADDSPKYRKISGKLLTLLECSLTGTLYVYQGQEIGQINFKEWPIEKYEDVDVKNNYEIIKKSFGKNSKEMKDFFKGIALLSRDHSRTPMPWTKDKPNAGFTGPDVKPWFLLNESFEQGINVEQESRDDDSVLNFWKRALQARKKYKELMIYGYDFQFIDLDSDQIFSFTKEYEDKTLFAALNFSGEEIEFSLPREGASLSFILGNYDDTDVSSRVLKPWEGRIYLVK

What is called IC50 is the point on the concentration scale where inhibition reaches its midpoint. Turning to `CC(=O)NC[C@H]1N[C@H](CO)[C@H](O)[C@H]1O` [F-10b, 1-N-acetylamino-2,5-imino-1,2,5-trideoxy-D-iditol hydrochloride], the IC50 in assay [1] was 652 µM; in [2], “NI (No Inhibition (less than 50% at 1000 μM))”; against β-Mannosidase (Snail), “NI (No Inhibition (less than 50% at 1000 μM))”; in assay [6] it was “NI (No Inhibition (less than 50% at 1000 μM))”; in assay [7] it was 98 µM; on Rat intestinal maltase, “NI (No Inhibition (less than 50% at 1000 μM))”. For the same molecule, the “Inhibition % at 1000 μM” value in [2] (1000 μM) is on record as 0%; in the assay on β-Mannosidase (Snail) (1000 μM), 0%; in assay [6] (1000 μM), 36.1%; in the assay with Rat intestinal maltase (1000 μM) it was 12.7%. The inhibition at 1000 µM in assay [3] (setting [9]) was 2.3%; in [3] (read-out: IC50), below 50%; in assay [4] (setting [9]) it was 0%; in [4] (read-out: IC50), below 50%; in [5] (setting [9]), 0%; in [5] (read-out: IC50), below 50%. For the same molecule, the inhibition at 1000 µM is 0% on α-Glucosidase (Rice) (setting [9]); below 50% at α-Glucosidase (Rice) (read-out: IC50); 0% at α-Glucosidase (Yeast) (read-out: Inhibition % at 1000 μM); below 50% on α-Glucosidase (Yeast) (α-Glucosidase, Yeast, read-out: IC50); 3.9% in assay [8] (setting [9]); below 50% in assay [8] (read-out: IC50).
